Test results reported in patent EP0076430A1, “Compositions having antimicrobial activity” (MEDEA RESEARCH S.r.l., priority 1981, dated 1983).

Tests used:
[1] = Toxicity, LD50 by intraperitoneal route; settings: mouse, in vivo, ip, mice
E. coli = experiment: Bactericide activity at different contact times; assay type: cell-based; set-up: key to Bactericide action (growth / no growth): + = growth; - = no growth; settings: 100 p.p.m.
Experimental: (§1) Different bacterial species isolated from patients are employed.
(§2) Compounds AB5 and AB6 are dissolved in ethanol (ethyl alcohol 95°, C. Erba) and all the subsequent dilutions performed in distilled water. The chlorhexidine is diluted from the commercial product already dissolved in distilled water.
(§3) It is assessed through Dinatech apparatus with "Inoculum 96" head.
(§4) Chemical compounds at established concentra tions are placed in amount of 1 ml in the con tainers, the bacterial inoculum is then added in amount of 0.1 ml (24 hrs culture) and at pre-established times (3,5,10,30,60 and 120 mi nutes), through the head, the mixture compound/ disinfectant agent is transferred in solid medium (agar-heart-brain medium). After incubation at 35°C for 24 hours, the reading is carried out. The tests are repeated in presence of human serum at the concentration of 10%.

Serratia marcescens [2] = experiment: Bactericide activity at different contact times; assay type: cell-based; set-up: key to Bactericide action (growth / no growth): + = growth; - = no growth; settings: 100 p.p.m.
Experimental: as §1, §2, §3, §4

Indole-positive Proteus [3] = experiment: Bactericide activity at different contact times; assay type: cell-based; set-up: key to Bactericide action (growth / no growth): + = growth; - = no growth; settings: 100 p.p.m.
Experimental: as §1, §2, §3, §4

Staph. aureus [4] = experiment: Bactericide activity at different contact times; assay type: cell-based; set-up: key: + = growth; - = no growth; settings: 100 p.p.m.
Experimental: as §1, §2, §3, §4

B. subtilis = experiment: Bactericide activity at different contact times; assay type: cell-based; set-up: key: + = growth; - = no growth; settings: 100 p.p.m.
Experimental: as §1, §2, §3, §4

Salmonella sp. [5] = experiment: Bactericide activity at different contact times; assay type: cell-based; set-up: key: + = growth; - = no growth; settings: 100 p.p.m.
Experimental: as §1, §2, §3, §4

Bacillaceae = experiment: Minimum inhibitory concentration (MIC), broth dilution; assay type: cell-based; settings: 24 h; strain 1722
Experimental: as §1, §2
(§5) The broth dilution is employed to assess MIC values for all strains. Sterile microtiter plates with U bottom with 96 wells are employed. 0.1 Ml of liquid medium (tryptose Roche broth) are put in each well, the plates are kept at -20° and, before use, at room temperature.
(§6) The disinfectant agent is put in the wells of the row 2 at a concentration of 4000 mcg/ml (real 2000 mcg/ml) and then with a 100 µl micro- pipette dilutions are performed from row 2 to row 11.
(§7) The row 1 is the control of the medium and the row 12 is the control for the fertility of the medium itself.
(§8) After having performed the dilutions, 0.01 ml of a 24 hrs bacterial broth culture (previously diluted at 10^-4 for Gram-negative strains and 10-2 for Gram-positive ones) are placed in all wells, from the rows 2 to 12. After the inoculation, the plate is hermetical ly sealed with adhesive transparent band and an hole is done with a needle. The plates are kept at 35° for 24 hours and a macroscopic reading is carried out; in case of non uniform reading, taking place only for chlorhexidine, the cultures from the wells are plated on agar-heart-brain medium (Sclavo) through Dinatech apparatus (head "Inoculum 96") and the reading of the growth is carried out in the following 24 hours.

Serratia marcescens [6] = experiment: as above; assay type: cell-based; settings: 24 h, strain 1814
Experimental: as §1, §2, §5, §6, §7, §8

E.coli = experiment: as above; assay type: cell-based; settings: Escherichia coli, 24 h
Experimental: as §1, §2, §5, §6, §7, §8

Staph. aureus [7] = experiment: as above; assay type: cell-based; settings: Staphylococcus aureus, 24 h; strain 2672
Experimental: as §1, §2, §5, §6, §7, §8

Pseudomonas aeruginosa [8] = experiment: as above; assay type: cell-based; settings: 24 h
Experimental: as §1, §2, §5, §6, §7, §8

Indole-positive Proteus [9] = experiment: as above; assay type: cell-based; settings: 24 h
Experimental: as §1, §2, §5, §6, §7, §8

Enterobacter = experiment: as above; assay type: cell-based; settings: 24 h, strain 2643
Experimental: as §1, §2, §5, §6, §7, §8

Salmonella sp. [10] = experiment: as above; assay type: cell-based; settings: 24 h, strain 2482
Experimental: as §1, §2, §5, §6, §7, §8

Pseudomonas aeruginosa [11] = experiment: Bactericide activity at different contact times; assay type: cell-based; set-up: key to Bactericide action (growth / no growth) / Bactericide activity (growth / no growth), serum interference test: + = growth; - = no growth; settings: 100 p.p.m.
Experimental: as §1, §2, §3, §4

NC(=NCl)c1ccccc1 [AB5]
60 to 120 min: contact time for total bactericide activity (Indole-positive Proteus [3]) | contact time for total bactericide activity (Pseudomonas aeruginosa [11])
≤ 3 min: contact time for total bactericide activity (E. coli)
31.2 µg/mL: MIC (Serratia marcescens [6])
250 µg/mL: MIC (E.coli; strain 2094) | MIC (E.coli; strain 2096) | MIC (E.coli; strain 2117) | MIC (Staph. aureus [7]) | MIC (Pseudomonas aeruginosa [8]; strain 2084) | MIC (Pseudomonas aeruginosa [8]; strain 2488) | MIC (Pseudomonas aeruginosa [8]; strain 2509) | MIC (Indole-positive Proteus [9]; strain 2075) | MIC (Indole-positive Proteus [9]; strain 2410) | MIC (Enterobacter) | MIC (Salmonella sp. [10])
15.6 µg/mL: MIC (Bacillaceae)
500 µg/mL: MIC (E.coli; strain 2456) | MIC (E.coli; strain 2568) | MIC (Pseudomonas aeruginosa [8]; strain 2458) | MIC (Pseudomonas aeruginosa [8]; strain 2508) | MIC (Pseudomonas aeruginosa [8]; strain 2670) | MIC (Indole-positive Proteus [9]; strain 2105) | MIC (Indole-positive Proteus [9]; strain 2447) | MIC (Indole-positive Proteus [9]; strain 2674)
+: Bactericide action (growth / no growth) (Indole-positive Proteus [3]; contact time 3 min) | Bactericide action (growth / no growth) (Indole-positive Proteus [3]; contact time 5 min) | Bactericide action (growth / no growth) (Staph. aureus [4]; contact time 3 min) | Bactericide action (growth / no growth) (Staph. aureus [4]; contact time 5 min) | Bactericide action (growth / no growth) (Staph. aureus [4]; contact time 10 min) | Bactericide action (growth / no growth) (Staph. aureus [4]; contact time 30 min) | Bactericide action (growth / no growth) (Salmonella sp. [5]; contact time 3 min) | Bactericide action (growth / no growth) (Salmonella sp. [5]; contact time 5 min) | Bactericide action (growth / no growth) (Pseudomonas aeruginosa [11]; contact time 3 min) | Bactericide action (growth / no growth) (Pseudomonas aeruginosa [11]; contact time 5 min) | Bactericide action (growth / no growth) (Pseudomonas aeruginosa [11]; contact time 10 min) | Bactericide action (growth / no growth) (Pseudomonas aeruginosa [11]; contact time 30 min) | Bactericide action (growth / no growth) (Pseudomonas aeruginosa [11]; contact time 60 min)
85 mg/kg: LD50 [1]
-: Bactericide action (growth / no growth) (E. coli; contact time 3 min) | Bactericide action (growth / no growth) (E. coli; contact time 5 min) | Bactericide action (growth / no growth) (E. coli; contact time 10 min) | Bactericide action (growth / no growth) (E. coli; contact time 30 min) | Bactericide action (growth / no growth) (E. coli; contact time 60 min) | Bactericide action (growth / no growth) (E. coli; contact time 120 min) | Bactericide action (growth / no growth) (Serratia marcescens [2]; contact time 3 min) | Bactericide action (growth / no growth) (Serratia marcescens [2]; contact time 5 min) | Bactericide action (growth / no growth) (Serratia marcescens [2]; contact time 10 min) | Bactericide action (growth / no growth) (Serratia marcescens [2]; contact time 30 min) | Bactericide action (growth / no growth) (Serratia marcescens [2]; contact time 60 min) | Bactericide action (growth / no growth) (Serratia marcescens [2]; contact time 120 min) | Bactericide action (growth / no growth) (Indole-positive Proteus [3]; contact time 10 min) | Bactericide action (growth / no growth) (Indole-positive Proteus [3]; contact time 30 min) | Bactericide action (growth / no growth) (Indole-positive Proteus [3]; contact time 60 min) | Bactericide action (growth / no growth) (Indole-positive Proteus [3]; contact time 120 min) | Bactericide action (growth / no growth) (Staph. aureus [4]; contact time 60 min) | Bactericide action (growth / no growth) (Staph. aureus [4]; contact time 120 min) | Bactericide action (growth / no growth) (B. subtilis; contact time 3 min) | Bactericide action (growth / no growth) (B. subtilis; contact time 5 min) | Bactericide action (growth / no growth) (B. subtilis; contact time 10 min) | Bactericide action (growth / no growth) (B. subtilis; contact time 30 min) | Bactericide action (growth / no growth) (B. subtilis; contact time 60 min) | Bactericide action (growth / no growth) (B. subtilis; contact time 120 min) | Bactericide action (growth / no growth) (Salmonella sp. [5]; contact time 10 min) | Bactericide action (growth / no growth) (Salmonella sp. [5]; contact time 30 min) | Bactericide action (growth / no growth) (Salmonella sp. [5]; contact time 60 min) | Bactericide action (growth / no growth) (Salmonella sp. [5]; contact time 120 min) | Bactericide action (growth / no growth) (Pseudomonas aeruginosa [11]; contact time 120 min)
125 µg/mL: MIC (Indole-positive Proteus [9]; strain 2083)
